Data reported in patent US7812042B2, “Pharmaceutical compositions and therapeutic applications for the use of a novel vitamin B12 derivative, N-acetyl-L-cysteinylcobalamin” (priority 2006, dated 2010).
“And” between values parts separate entries of the source, which are not always exact repeats. Equal entries are not always repeated.

Legend:
Assay type in all cases: cell-based, Human
SK-HEP-1 cells [1] = experiment: Protection from apoptosis induced by homocysteine (Caspase-3 activity); settings: 30 μM pre-treatment two hours, then 30 μM homocysteine two hours
Protocol: Caspase 3 is activated when cells undergo apoptosis. Caspase-3 assay is a standard for apoptosis assay. Homocysteine is a known inducer of apoptosis. Cells were cultured in 96-well plates for 24 hours and then treated with reagents under test conditions. Cytotoxic agents, H2O2 and etoposide were added to negative control wells. The assay was performed according to the manufacturer's protocol, as follows: Cells were re-suspended in 100 μl of clear media and 50 μl of Caspase-3 substrate solution was immediately added to each test well. […] Cell viability was determined by MTS® assay. […] Cell viability was determined by MTS® assay.

SK-HEP-1 cells [2] = experiment: Protection of endothelial cells from homocysteine-induced cell death (MTS assay, absorbance at 490 nm; includes comparison of NACCbl, NAC, cyanocobalamin+NAC, free thiols, other cobalamins, folate); settings: for Absorbance at 490 nm (n = 6): replicates Y1-Y6
Protocol: The effect of a constant concentration of NACCbl and GSCbl to protect cells against variable concentrations of homocysteine was assessed. […] Cell viability was determined by MTS® assay. Data shown in FIG. 4 are representative of means ±SE of 6 independent samples. FIG. 4 illustrates that NACCbl (▪) and GSCbl (▴) protect endothelial cells from the effect of homocysteine. […] Cell viability was determined by MTS® assay. […] There was a decrease in protection as homocysteine concentration increased, but there was still ˜60% survival at 50 μM homocysteine.
The data was normalized (log 2 and log 10) as shown in FIGS. 16 and 17 and Tables 16 and 17, respectively, below.

SK-HEP-1 cells [3] = experiment: Protection of endothelial cells from H2O2-induced cell death (MTS assay)
Protocol: The effect of increasing concentrations of NACCbl and GSCbl to protect endothelial cells from the effect of H2O2 was assessed. […] Cell viability was determined by MTS® assay. […] Cell viability was determined by MTS® assay. […] Cell viability was determined by MTS® assay.

SK-HEP-1 cells [4] = experiment: NACCbl protection from homocysteine with Hsp32/Hsp70 inhibited by Sn(IX) protoporphyrin, quercitin or siRNA (MTS assay); settings: Hcy 0; NACCbl 30 μM pre-treatment two hours with/without Sn(IX)PP, quercetin; replicates 1-6
From the text: siRNAs for human HO-1 were synthesised in 2′-deprotected, duplexed, desalted and purified form by Dharmacon Research Inc., published sequences from Zhang et al., (Zhang, Shan et al. 2004). Human Hsp70 primers were from proprietary sequences, and all control non-targeting primer sequences were also synthesised by Dharmacon Research Inc.
Transfection was optimised using a standard siControl Tox protocol. All transfection experiments included non-targeted siRNA.
Cells were trypsinized and plated into 12- or 96-well plates at cell density of 2×10^5, then incubated for 24 hours until adherent. Complexed siRNA and transfection agent at 100 nm was added directly to each experimental well. Plates were incubated at 37° C. for 32.5 hours for mRNA gene analysis experiments or 72 hours for protein analysis by Western Blot.
Complexed siRNA and transfection agent was added to each well of either 12- or 96-well plates. Cells were then trypsinized and added directly into each test well at cell density of 2×10^5. Plates were incubated at 37° C. for 32.5 hours for mRNA gene analysis experiments or 72 hours for protein analysis by Western Blot.
Hsp32 was inhibited using either Sn (IX) protoporhyrin or using an siRNA which specifically knocks out Hsp32. Hsp70 was inhibited using quercitin or using an siRNA which specifically knocks out Hsp70. In addition, two methods were used to inhibit both Hsp32 and Hsp70: chemically Sn (IX) protoporphyrin plus quercitin was used; and then, directly, a combination of the siRNA for both genes was used simultaneously.

[5] = 2 hours pre-incubation, then 25 μM H2O2 24 hours

Q: Which results are given for `CC(=O)NC(C[S-])C(=O)O.CC1=C2N=C(C=C3N=C(C(C)=C4[N-]C(C(CC(N)=O)C4(C)CCC(=O)NCC(C)OP(=O)([O-])OC4C(CO)OC(n5cnc6cc(C)c(C)cc65)C4O)C4(C)N=C1C(CCC(N)=O)C4(C)CC(N)=O)C(CCC(N)=O)C3(C)C)C(CCC(N)=O)C2(C)CC(N)=O.[Co+3]` [NACCbl, N-acetyl-L-cysteinylcobalamin]?
A: protection against apoptosis induced by homocysteine (SK-HEP-1 cells [1]): total protection; survival (SK-HEP-1 cells [2]; 30 μM cobalamin pre-incubation two hours, then 50 μM homocysteine two hours): ~60%; pre-incubation concentration that protected cells from homocysteine-induced cell death (SK-HEP-1 cells [2]; 2 hours pre-incubation, then 30 μM homocysteine 24 hours): ≥ 2.0 µM; Absorbance at 490 nm, Mean (n = 6) (SK-HEP-1 cells [2]; Conc. Hcy 0.000, NACCbl 30 μM, NAC 75 μM): 2.761; Absorbance at 490 nm, Mean (n = 6) (SK-HEP-1 cells [2]; Conc. Hcy 1.780 (μM), NACCbl 30 μM, NAC 75 μM): 2.673; Absorbance at 490 nm, Mean (n = 6) (SK-HEP-1 cells [2]; Conc. Hcy 3.125 (μM), NACCbl 30 μM, NAC 75 μM): 2.404; Absorbance at 490 nm, Mean (n = 6) (SK-HEP-1 cells [2]; Conc. Hcy 6.250 (μM), NACCbl 30 μM, NAC 75 μM): 2.273; Absorbance at 490 nm, Mean (n = 6) (SK-HEP-1 cells [2]; Conc. Hcy 12.500 (μM), NACCbl 30 μM, NAC 75 μM): 2.142; Absorbance at 490 nm, Mean (n = 6) (SK-HEP-1 cells [2]; Conc. Hcy 25.000 (μM), NACCbl 30 μM, NAC 75 μM): 1.954; Absorbance at 490 nm, Mean (n = 6) (SK-HEP-1 cells [2]; Conc. Hcy 50.000 (μM), NACCbl 30 μM, NAC 75 μM): 1.786; Absorbance at 490 nm, Mean (n = 6) (SK-HEP-1 cells [2]; Conc. Hcy 100.000 (μM), NACCbl 30 μM, NAC 75 μM): 1.685; Absorbance at 490 nm, Mean (n = 6) (SK-HEP-1 cells [2]; Conc. Hcy 200.000 (μM), NACCbl 30 μM, NAC 75 μM): 1.393; Absorbance at 490 nm (n = 6) (SK-HEP-1 cells [2]; Conc. of Hcy 0.000, NACCbl 30 μM, NAC 75 μM): 2.885 and 2.698 and 2.821 and 2.771 and 2.691 and 2.700; Absorbance at 490 nm (n = 6) (SK-HEP-1 cells [2]; Conc. of Hcy 1.780, NACCbl 30 μM, NAC 75 μM): 2.647 and 2.551 and 2.789 and 2.890 and 2.549 and 2.611; Absorbance at 490 nm (n = 6) (SK-HEP-1 cells [2]; Conc. of Hcy 3.125, NACCbl 30 μM): 2.453 and 2.338 and 2.360 and 2.317 and 2.418 and 2.535; Absorbance at 490 nm (n = 6) (SK-HEP-1 cells [2]; Conc. of Hcy 6.250, NACCbl 30 μM, NAC 75 μM): 2.410 and 2.400 and 2.322 and 2.201 and 2.115 and 2.187; Absorbance at 490 nm (n = 6) (SK-HEP-1 cells [2]; Conc. of Hcy 12.500, NACCbl 30 μM, NAC 75 μM): 2.210 and 2.110 and 2.045 and 2.065 and 2.101 and 2.324; Absorbance at 490 nm (n = 6) (SK-HEP-1 cells [2]; Conc. of Hcy 25.000, NACCbl 30 μM, NAC 75 μM): 2.100 and 2.190 and 1.879 and 1.937 and 1.779 and 1.837; Absorbance at 490 nm (n = 6) (SK-HEP-1 cells [2]; Conc. of Hcy 50.000, NACCbl 30 μM, NAC 75 μM): 1.678 and 1.832 and 1.881 and 1.730 and 1.740 and 1.855; Absorbance at 490 nm (n = 6) (SK-HEP-1 cells [2]; Conc. of Hcy 100.000, NACCbl 30 μM, NAC 75 μM): 1.678 and 1.592 and 1.694 and 1.773 and 1.732 and 1.639; Absorbance at 490 nm (n = 6) (SK-HEP-1 cells [2]; Conc. of Hcy 200.000, NACCbl 30 μM, NAC 75 μM): 1.378 and 1.167 and 1.330 and 1.456 and 1.491 and 1.537; protection against homocysteine-induced damage compared with free thiols (SK-HEP-1 cells [2]; Hcy 30 μM, NAC 45, GSH 100, NACCbl 12.5, GSCbl 15 μM, with or without folate 25 μM): superior to the free thiols; protection compared with GSCbl (p<0.001) (SK-HEP-1 cells [2]; concentrations below 12.5 μM, 30 μM homocysteine 24 hours): significantly greater than that provided by GSCbl; prevention of cell death compared with NAC and cyanocobalamin+NAC (SK-HEP-1 cells [2]; variable Hcy concentration, NACCbl 30 μM): superior to either NAC (75 μM) alone or in combination with CNCbl; survival (SK-HEP-1 cells [2]; ≧12.5 μM NACCbl 2 hours, then 30 μM homocysteine 24 hours): 80%; protection by NACCbl compared with GSCbl (SK-HEP-1 cells [3]; 25 μM H2O2 24 hours): no difference; concentration required to achieve >80% survival (SK-HEP-1 cells [3]; [5]): 100 µM; pre-incubation concentration that protected cells from H2O2-induced cell death (SK-HEP-1 cells [3]; [5]): ≥ 2.0 µM; cell viability (MTS), raw readings (FIG. 11) (SK-HEP-1 cells [4]): 2.885 and 2.698 and 2.821 and 2.771 and 2.691 and 2.7
